In US8618063B2, “Method for treating a synucleinopathy” (The Board of Trustees of the University of Illinois, priority 2008, dated 2013):
“Also recorded” adds a separate entry of the source. Where two headings read alike, the source gives them in different places.

Legend:
[1] = tested on: MPP+ effects on fast axonal transport; experiment: Isolated axoplasm: blocking of MPP+ effects on fast axonal transport; type: cell-based, squid Loligo pealeii; conditions: FIG. 5B
Experimental: (§1) Axoplasm was extruded from giant axons of the squid Loligo pealeii (Marine Biological Laboratory) according to established methods (Brady, et al. (1985) Cell Motil. 5(2):81-101). Axons were 400-600 μm in diameter and provided ≈5 μl of axoplasm per axon. Wild-type α-synuclein or α-synuclein with point mutations associated with familial Parkinson's disease (Ala30Pro or Ala53Thr), MPP+, enzymes or inhibitors were diluted into X/2 buffer (175 mM potassium aspartate, 65 mM taurine, 35 mM betaine, 25 mM glycine, 10 mM HEPES, 6.5 mM MgCl2, 5 mM EGTA, 1.5 mM CaCl2, 0.5 mM glucose, pH 7.2) supplemented with 2-5 mM ATP and 20 μl of this mix was added to perfusion chambers (Brady, et al. (1985) supra). Preparations were analyzed on a ZEISS AXIOMAT with a 100×, 1.3 na objective, and DIC optics. Hamamatsu Argus 20 and Model 2400 CCD camera were used for image processing and analysis. Organelle velocities were measured with a Photonics Microscopy C2117 video manipulator (Hamamatsu).
(§2) MPTP/MPP+ is the best characterized example of toxin-induced Parkinson's disease. The effects of MPP+ on fast axonal transport were examined in axoplasm as was dynein phosphorylation in cells. […] Based on reports that MPP+ could activate caspase3 (Turmel, et al. (2001) Mov. Disord. 16:185-9) and that caspase3 can activate a PKC by proteolytic cleavage (Kaul, et al. (2003) Eur. J. Neurosci. 18:1387-401), the ability of a caspase3 inhibitor to block effects of MPP+ on fast axonal transport was evaluated. […] Further, perfusion with Caspase 3 affected retrograde transport in a manner similar to PKC and MPP+ (retrograde transport=1.462±0.016 μm/sec).

[2] = tested on: Ala30Pro mutant α-synuclein induced failure of neurotransmission; experiment: Squid giant synapse: prevention of Ala30Pro α-synuclein induced failure of neurotransmission; type: cell-based; conditions: co-injection / coperfusion with Ala30Pro α-synuclein
Experimental: If they both work by activating PKC and increasing retrograde transport, they might affect availability of synaptic vesicle components in presynaptic terminals. Accordingly, either wild-type α-synuclein, Ala30Pro α-synuclein, or MPP+ were injected into the presynaptic side of the squid giant synapse as described for synaptic vesicles and synapsin (McGuinness, et al. (1989) J. Neurosci. 9:4138-4149; Llinas, et al. (1989) Proc. Nat. Acad. Sci. USA 86:5656-5660). This preparation has been used to evaluate the effects of reagents on presynaptic function by injecting, then stimulating the presynaptic side while recording intracellularly on both pre- and post-synaptic sides (Llinas, et al. (2004) Proc. Natl. Acad. Sci. USA 101:17855-60; Sugimori, et al. (1998) Neuroscience 86:39-51).

[3] = tested on: α-synuclein mutant Ala30Pro effects on fast axonal transport; experiment: Isolated axoplasm: blocking of mutant α-synuclein (Ala30Pro) effects on fast axonal transport; type: cell-based, squid Loligo pealeii; conditions: coperfused with α-synuclein mutant Ala30Pro, FIG. 3
Experimental: as §1
Accordingly, these inhibitors were coperfused with pathological α-synuclein mutant Ala30Pro and fast axonal transport was monitored. […] Similarly, the effects of α-synuclein mutant Ala30Pro could be blocked by a PKCmu peptide substrate (FIG. 3B) and an inhibitor of Src-Family Tyrosine Kinases (PP2) (FIG. 3C).

[4] = tested on: LB filaments (wild-type α-synuclein) effects on fast axonal transport; experiment: Isolated axoplasm: blocking of LB filament effects on fast axonal transport; type: cell-based, squid Loligo pealeii; conditions: FIG. 4B
Experimental: as §1
Plasmids containing wild-type α-synuclein; Ala30Pro α-synuclein and Ala53Thr α-synuclein for conventional expression in bacteria were used to generate synuclein protein used in axoplasm and squid giant synapse preparations. […] The ability of LB filaments to affect retrograde axonal transport in isolated axoplasm was evaluated, as were the effects of wild-type LB filaments on kinases.

[5] = tested on: Src/Fyn effects on fast axonal transport; experiment: Isolated axoplasm: blocking of Src/Fyn effects on fast axonal transport; type: cell-based, squid Loligo pealeii; conditions: for blocking of Src/Fyn actions on fast axonal transport: concentration not given
Experimental: as §1
Screening of nonreceptor tyrosine kinases included Src- and Abl-family members. […] Given that neither kinesin nor dynein are known to have tyrosine phosphorylations, the ability of a broad spectrum PKC inhibitor Gö6976 was included in the assay to block the action of Fyn. Gö6976 inhibition of PKC abolished actions of Src/Fyn on fast axonal transport (FIG. 1D), as did perfusion of the MARCKS peptide.

PKCα = PKCα (Homo sapiens, UniProt P17252); conditions: cited from earlier work
PKCβ = PKCβ (Homo sapiens, UniProt P05771); conditions: cited from earlier work
Sequence of PKCβ (P05771 whole entry, species assumed): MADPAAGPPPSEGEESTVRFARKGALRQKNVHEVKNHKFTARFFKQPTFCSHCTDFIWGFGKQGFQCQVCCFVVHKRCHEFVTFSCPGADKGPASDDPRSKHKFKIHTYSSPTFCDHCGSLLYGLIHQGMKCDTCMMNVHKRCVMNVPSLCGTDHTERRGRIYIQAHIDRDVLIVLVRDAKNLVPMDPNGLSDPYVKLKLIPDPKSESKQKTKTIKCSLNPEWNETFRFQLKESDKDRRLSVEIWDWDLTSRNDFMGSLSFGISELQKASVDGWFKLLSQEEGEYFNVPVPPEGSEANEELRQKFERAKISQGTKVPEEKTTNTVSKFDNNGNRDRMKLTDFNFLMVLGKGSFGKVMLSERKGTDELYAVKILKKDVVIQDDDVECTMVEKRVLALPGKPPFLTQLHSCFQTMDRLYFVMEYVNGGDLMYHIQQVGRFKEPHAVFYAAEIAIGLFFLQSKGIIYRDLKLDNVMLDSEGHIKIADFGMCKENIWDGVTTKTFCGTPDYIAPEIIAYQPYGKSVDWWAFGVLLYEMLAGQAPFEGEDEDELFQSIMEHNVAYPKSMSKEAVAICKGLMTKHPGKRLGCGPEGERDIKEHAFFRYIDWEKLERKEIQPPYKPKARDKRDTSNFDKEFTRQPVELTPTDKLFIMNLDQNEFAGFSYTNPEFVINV

PKCμ = target: T1, PKCμ (Homo sapiens, UniProt Q15139); conditions: cited from earlier work
T1 sequence (Q15139 1-912): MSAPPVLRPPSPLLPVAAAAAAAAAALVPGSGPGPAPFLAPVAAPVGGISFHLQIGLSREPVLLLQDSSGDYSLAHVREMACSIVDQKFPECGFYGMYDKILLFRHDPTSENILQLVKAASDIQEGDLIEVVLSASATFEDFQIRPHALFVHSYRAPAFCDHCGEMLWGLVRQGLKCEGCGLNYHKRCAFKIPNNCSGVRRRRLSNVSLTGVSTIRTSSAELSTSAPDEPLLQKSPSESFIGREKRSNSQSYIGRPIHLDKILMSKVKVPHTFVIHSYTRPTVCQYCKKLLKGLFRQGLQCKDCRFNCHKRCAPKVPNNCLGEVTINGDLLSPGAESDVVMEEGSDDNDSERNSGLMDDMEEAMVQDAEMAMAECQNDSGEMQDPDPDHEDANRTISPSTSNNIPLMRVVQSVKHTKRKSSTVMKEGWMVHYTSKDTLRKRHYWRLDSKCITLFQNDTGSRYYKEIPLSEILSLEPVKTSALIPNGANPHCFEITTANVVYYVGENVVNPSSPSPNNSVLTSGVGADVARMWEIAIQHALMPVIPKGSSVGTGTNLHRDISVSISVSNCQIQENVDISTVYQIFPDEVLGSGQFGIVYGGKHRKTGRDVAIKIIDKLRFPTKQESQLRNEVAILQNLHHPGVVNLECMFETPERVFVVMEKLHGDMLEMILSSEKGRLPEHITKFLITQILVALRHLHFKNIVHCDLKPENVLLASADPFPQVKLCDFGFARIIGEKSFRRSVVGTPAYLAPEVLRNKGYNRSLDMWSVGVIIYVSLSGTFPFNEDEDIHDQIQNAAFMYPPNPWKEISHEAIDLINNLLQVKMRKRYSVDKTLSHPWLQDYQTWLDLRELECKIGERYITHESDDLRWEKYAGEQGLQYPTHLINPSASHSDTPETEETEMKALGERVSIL

phosphorylation of DIC = experiment: NGF/BDNF (Trk receptor) induced shift of dynein intermediate chain; type: cell-based; conditions: Trk neurotrophin receptors; Gö6976 at 100 nM
From the text: Specifically, NGF and BDNF binding to Trk neurotrophin receptors caused a shift in the apparent molecular weight of dynein intermediate chain (DIC). To identify the kinase pathway involved in this change, more than 30 different kinase and phosphatase inhibitors were screened.

PKCζ = target: T2, PKCζ (Homo sapiens, UniProt Q05513); conditions: cited from earlier work
T2 sequence (Q05513 1-592): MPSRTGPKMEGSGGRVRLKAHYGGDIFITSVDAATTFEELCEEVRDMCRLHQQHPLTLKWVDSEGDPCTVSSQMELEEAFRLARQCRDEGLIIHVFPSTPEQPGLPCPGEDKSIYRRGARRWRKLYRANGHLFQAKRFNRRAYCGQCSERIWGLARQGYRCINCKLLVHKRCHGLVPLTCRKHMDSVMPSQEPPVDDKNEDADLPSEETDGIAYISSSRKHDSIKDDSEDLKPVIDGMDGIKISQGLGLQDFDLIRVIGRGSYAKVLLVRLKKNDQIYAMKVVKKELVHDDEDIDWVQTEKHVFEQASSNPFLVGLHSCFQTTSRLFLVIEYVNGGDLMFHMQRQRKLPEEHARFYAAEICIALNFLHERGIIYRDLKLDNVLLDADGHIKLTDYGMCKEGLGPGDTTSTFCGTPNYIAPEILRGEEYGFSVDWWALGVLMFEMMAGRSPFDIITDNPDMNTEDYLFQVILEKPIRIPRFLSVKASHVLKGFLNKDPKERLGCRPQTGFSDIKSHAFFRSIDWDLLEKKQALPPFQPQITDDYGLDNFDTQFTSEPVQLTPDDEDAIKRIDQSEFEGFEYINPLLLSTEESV

PKCγ = PKCγ (Homo sapiens, UniProt P05129); conditions: cited from earlier work
PKCδ = PKCδ (Homo sapiens, UniProt Q05655); conditions: cited from earlier work
Sequence of PKCδ (Q05655 whole entry, the tested form may be a part): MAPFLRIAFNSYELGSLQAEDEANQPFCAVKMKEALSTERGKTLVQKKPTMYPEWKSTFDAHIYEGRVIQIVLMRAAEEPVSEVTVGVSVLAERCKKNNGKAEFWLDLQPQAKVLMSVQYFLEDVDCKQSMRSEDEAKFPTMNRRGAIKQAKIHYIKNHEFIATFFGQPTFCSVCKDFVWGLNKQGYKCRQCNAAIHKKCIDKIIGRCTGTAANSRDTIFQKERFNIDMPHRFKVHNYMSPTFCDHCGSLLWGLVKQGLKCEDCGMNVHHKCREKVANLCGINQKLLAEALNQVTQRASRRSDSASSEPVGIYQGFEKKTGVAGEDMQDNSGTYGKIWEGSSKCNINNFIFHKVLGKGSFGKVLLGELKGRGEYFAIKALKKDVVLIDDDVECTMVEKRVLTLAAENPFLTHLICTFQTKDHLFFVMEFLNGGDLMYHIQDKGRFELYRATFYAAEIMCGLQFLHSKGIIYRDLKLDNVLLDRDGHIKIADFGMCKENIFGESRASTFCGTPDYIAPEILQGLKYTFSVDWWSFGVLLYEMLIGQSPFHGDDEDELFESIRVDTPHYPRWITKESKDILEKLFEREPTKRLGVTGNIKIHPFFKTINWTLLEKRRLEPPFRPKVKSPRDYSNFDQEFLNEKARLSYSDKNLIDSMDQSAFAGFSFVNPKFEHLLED

fast axonal transport = experiment: Motility studies in isolated axoplasm: effect of perfused substance on fast axonal transport; type: cell-based, squid Loligo pealeii; conditions: substance perfused alone into isolated axoplasm
Experimental: as §1

PKD [6] = target: T3, PKD (Homo sapiens, UniProt Q15139); conditions: read-out: PKD phosphorylation of the exogenous substrate syntide-2 IC50; cited from earlier work
T3 sequence (Q15139 1-912): T1 sequence (Q15139 1-912)

PKD [7] = target: T3, PKD; conditions: read-out: PKD autophosphorylation IC50; cited from earlier work
[8] = tested on: cPKC-alpha, cPKC-beta, cPKC-gamma, nPKC-delta and nPKC-epsilon, and aPKC-zeta; conditions: cited from earlier work
DIC phosphorylation [9] = experiment: Labeling studies with MPP+ treated cortical neurons; type: cell-based; conditions: MPP+ treated cortical neurons
Experimental: One mCi ^32P phosphate (ICN) was added per dish and incubated for 4 hours. Medium was discarded, cells homogenized in 1 ml of ROLB buffer and processed accordingly to standard methods (Morfini, et al. (2004) supra). Axoplasms were prepared as for video microscopy, but 1 mCi of γ-^32P-ATP was added. After 50 minutes incubation, axoplasms were homogenized in ROLB buffer. A 10 μl aliquot of lysate was precipitated with 15% TCA and radioactivity incorporated into protein determined by scintillation counting. Aliquots of equal counts were used for kinesin immunoprecipitation with 10 μg of 74.1 antibody and Protein G-agarose beads (Pierce). Immunoprecipitates were separated by SDS-PAGE, dried and exposed in a PHOSPHORIMAGER cassette, then scanned and quantified on a TYPHOON (Amersham/Molecular Dynamics).
as §2

DIC phosphorylation [10] = experiment: Reelin receptor stimulated DIC phosphorylation; type: cell-based

## CC(C)(C)n1nc(-c2ccc(Cl)cc2)c2c(N)ncnc21 [PP2, 4-amino-5-(4-chlorophenyl)-7-(t-butyl) pyrazolo[3,4-d-]pyrimidine]
[1]
  blocking of MPP+ effects on fast axonal transport: did not
[2]
  prevention of Ala30Pro α-synuclein effect on neurotransmission: prevented
[3]
  blocking of familial Parkinson's disease mutant α-synuclein (Ala30Pro) effects on fast axonal transport: effective at blocking; also recorded: blocked
[4]
  blocking of LB filament (wild-type α-synuclein) effects on fast axonal transport: blocked

## COc1ccc2c(c1)c(C1=C(c3c[nH]c4ccccc34)C(=O)NC1=O)cn2CCCN(C)C [Gö6983]
[5]
  blocking of Src/Fyn actions on fast axonal transport: did not block
[1]
  blocking of MPP+ effects on fast axonal transport: blocked
[2]
  prevention of Ala30Pro α-synuclein effect on neurotransmission: not effective
PKCα
  IC50: 0.007 µM
[3]
  blocking of familial Parkinson's disease mutant α-synuclein (Ala30Pro) effects on fast axonal transport: ineffective; also recorded: not effective
PKCβ
  IC50: 0.007 µM
PKCμ
  IC50: 20 µM
Phosphorylation of DIC
  blocking of NGF/BDNF induced shift (phosphorylation) of DIC: failed to block
PKCζ
  IC50: 0.06 µM
PKCγ
  IC50: 0.006 µM
PKCδ
  IC50: 0.01 µM

## Fyn: Src-Family nonreceptor tyrosine kinase perfused into axoplasm
Fast axonal transport
  effect on fast axonal transport (retrograde RT / anterograde AT), in words: indistinguishable from the effects of PKCs; also recorded: a rapid increase in the amount and rate of retrograde transport accompanied by a slow decline in anterograde transport

## Oc1ccc(C=Cc2cc(O)cc(O)c2)cc1 [resveratrol]
PKD [6]
  IC50: 36 µM
PKD [7]
  IC50: 52 µM
[8]
  effects against the autophosphorylation reactions of PKC isozyme subfamily members: negligible effects

## Cn1c2ccccc2c2c3c(c4c5ccccc5n(CCC#N)c4c21)CNC3=O [Gö6976, 5,6,7,13-Tetrahydro-13-methyl-5-oxo-12H-indolo[2,3-a]pyrrolo[3,4-c]carbazole-12-propanenitrile]
[5]; 100 nM inhibitor, FIG. 1D
  blocking of Fyn effects on fast axonal transport: blocked
[5]
  blocking of Src/Fyn actions on fast axonal transport: inhibited; also recorded: abolished
[1]
  blocking of MPP+ effects on fast axonal transport: blocked
[2]
  prevention of Ala30Pro α-synuclein effect on neurotransmission: prevented
[3]
  blocking of familial Parkinson's disease mutant α-synuclein (Ala30Pro) effects on fast axonal transport: effective at blocking; also recorded: prevented
[4]
  blocking of LB filament (wild-type α-synuclein) effects on fast axonal transport: blocked
Phosphorylation of DIC
  blocking of NGF/BDNF induced shift (phosphorylation) of DIC: able to block
DIC phosphorylation [9]
  blocking of MPP+ induced increase in DIC phosphorylation: blocked
DIC phosphorylation [10]
  blocking of Reelin receptor stimulated increase in DIC phosphorylation: blocked
